Source: PubChem BioAssay AID743274 (The Scripps Research Institute Molecular Screening Center, 2014)
The source made the active and inactive calls.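 Rule for the calls: active = malaria parasite growth inhibition of at least 50% at 10 µM in any single replicate well; inactive = under 50% inhibition in every replicate.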

System: P. falciparum 3D7 in RBCs, 3H-hypoxanthine incorporation, 48 h
Test: P. falciparum growth inhibition in erythrocytes, late-stage follow-up, P. falciparum M17LAP inhibitor project, cell-based, 3H-hypoxanthine radiolabel, RBCs, Set 2 (AID 743274)
Conditions: at 10 µM; stronger effect = higher value

Compound	inhibition
CCCCOc1ccc(CN(O)C(C)=O)cc1	19.5% (inactive)
O=C(Cc1ccc2c(c1)CCCC2)NO	82.5%
O=C(Cc1cccc2ccccc12)NO	14.5% (inactive)
CCCCOc1ccc(CNc2c(N(O)Cc3ccccc3)c(=O)c2=O)cc1	0% (inactive)
CCCCOc1ccc(CN(O)C(=O)c2ccccc2)cc1	59.5%
CCC(C)Oc1ccc(CC(=O)NO)cc1 (stereo unspecified)	71%
CCCCOc1ccc(CNc2c(N(C)O)c(=O)c2=O)cc1	63%
COc1ccc(OCCC(=O)NO)cc1	9% (inactive)
CC(C)(C(=O)NO)c1ccccc1	0% (inactive)
CCOc1ccc(CC(=O)NO)cc1	70%
CCCCCCCCCC(=O)NO	53%
CCCCc1ccc(CC(=O)NO)cc1	84.5%
CCCCOc1cccc(CC(=O)NO)c1	32.5% (inactive)
CCCOc1ccc(CC(=O)NO)cc1	74%
CCCCOc1ccc(C(C)(C)C(=O)NO)cc1	12% (inactive)
O=C(NO)c1cccc2ccccc12	0% (inactive)
CCCCOc1cccc(CC(=O)OC)c1	3% (inactive)
CCCCOc1ccc(CC(=O)N(C)O)cc1	58%

Compound	inhibition
CCCCOc1ccc(C(C)C(=O)O)cc1 (stereo unspecified)	0% (inactive)
O=C(Cc1ccc(Oc2ccccc2)cc1)NO	38.5%
CCCCOc1ccc(C(C)C(=O)OC)cc1 (stereo unspecified)	4.5% (inactive)
NC(N)=NCCC[C@H](N)C(=O)NO	0% (inactive)
CCCCOc1ccc(C(=O)NO)cc1	73.5%
CCCCOc1ccc(CCC(=O)NO)cc1	26% (inactive)
CCCCOc1ccc(CC(=O)O)cc1	0% (inactive)
N[C@@H](Cc1c[nH]c2ccccc12)C(=O)NO	2.5% (inactive)
O=C(Cc1ccc(OCc2ccccc2)cc1)NO	93%
CC(C)C[C@H](N)C(=O)NO	1% (inactive)
CN(O)C(=O)Cc1ccc(OCc2ccccc2)cc1	15.5% (inactive)
O=C(Cc1ccc2ccccc2c1)NO	52%
COc1ccc(CC(=O)NO)cc1	50%
CC(C)COc1ccc(CC(=O)NO)cc1	69%
O=C(NO)c1ccc2ccccc2c1	53.5%
CCCCOc1ccc(C(C)C(=O)NO)cc1 (stereo unspecified)	59.5%
COc1ccc(CCCC(=O)NO)cc1	15.5% (inactive)
Cc1ccc(CC(=O)NO)cc1	53%
